Where a SMILES comes first, the peptide text is derived from it. The star is where a group is joined. Cbz = O=C(OCc1ccccc1)*
Columns and labels:
[1] = relative to sugar; cited from earlier work
[2] = solubility in water or acidic aqueous solution; assay type: physicochemical; details: at 25° C.

| SMILES | sweetness [1] | solubility in water [2] | solubility in diluted hydrochloric acid ([2]; diluted hydrochloric acid (10^-2 M)) |
| --- | --- | --- | --- |
| COC(=O)[C@H](Cc1ccccc1)NC(=O)[C@@H](N)CC(=O)O [α-L-Aspartyl-L-phenylalanine methyl ester] (H-Asp-Phe-OMe) | about 200 times of that of sugar |  |  |
| COC(=O)[C@H](Cc1ccccc1)NC(=O)[C@H](CC(=O)O)NC(=O)OCc1ccccc1 (Cbz-Asp-Phe-OMe) |  | 0.028 g/100 g water | 0.017 g/100 g diluted hydrochloric acid (10^-2 M) |
